Tests used:
crabgrass = test: Test B pre/postemergence crabgrass; format: in vivo, Digitaria sanguinalis
Summary of the method: (§1)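 Herbicidal effect was estimated by eye on a ten-point control scale after plants spent twelve to sixteen days in a greenhouse following soil or foliar treatment. Foliar sprays targeted plants at one to four leaves; all doses were formulated in a non-phytotoxic solvent with surfactant.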

corn = test: Test B pre/postemergence corn; format: in vivo, Zea mays
Summary of the method: as §1

bamyardgrass = test: Test B flood test barnyardgrass; format: in vivo, Echinochloa crus-galli
Summary of the method: (§2)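 Plants were grown to the 2-leaf stage before treatment with test chemical, then held in a greenhouse for twelve to sixteen days. Injury was visually rated against untreated controls on a 0–10 scale, where 0 is no effect and 10 is complete control.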

smallflower flatsedge = test: Test B flood test smallflower flatsedge; format: in vivo, Cyperus difformis
Summary of the method: as §2

giant foxtail = test: Test B pre/postemergence giant foxtail; format: in vivo, Setaria faberii
Summary of the method: as §1

surinam grass = test: Test B pre/postemergence surinam grass; format: in vivo, Brachiaria decumbens
Summary of the method: as §1

blackgrass = test: Test B pre/postemergence blackgrass; format: in vivo, Alopecurus myosuroides
Summary of the method: as §1

velvetleaf = test: Test B pre/postemergence velvetleaf; format: in vivo, Abutilon theophrasti
Summary of the method: as §1

duck salad = test: Test B flood test duck salad; format: in vivo, Heteranthera limosa
Summary of the method: as §2

purple nutsedge = test: Test B pre/postemergence purple nutsedge; format: in vivo, Cyperus rotundus
Summary of the method: as §1

rice = test: Test B flood test rice; format: in vivo, Oryza sativa
Summary of the method: as §2

morningglory = test: Test B pre/postemergence morningglory; format: in vivo, Ipomoea hederacea
Summary of the method: as §1

wheat = test: Test B pre/postemergence wheat; format: in vivo, Triticum aestivum
Summary of the method: as §1

cocklebur = test: Test B pre/postemergence cocklebur; format: in vivo, Xanthium strumarium
Summary of the method: as §1

wild oat = test: Test B pre/postemergence wild oat; format: in vivo, Avena fatua
Summary of the method: as §1

sugar beet = test: Test B pre/postemergence sugar beet; format: in vivo, Beta vulgaris
Summary of the method: as §1

rape = test: Test B pre/postemergence rape; format: in vivo, Brassica napus
Summary of the method: as §1

pigweed = test: Test B pre/postemergence pigweed; format: in vivo, Amaranthus retroflexus
Summary of the method: as §1

soybean = test: Test B pre/postemergence soybean; format: in vivo, Glycine max
Summary of the method: as §1

[1] = Postemergence, Rate 31 g/ha, visual rating, scale 0 to 10 (0 no effect, 10 complete control)
[2] = Postemergence, Rate 62 g/ha, scale 0 to 10, 0 is no effect, 10 is complete control
[3] = Postemergence, Rate 125 g/ha, scale of 0 to 10 where 0 is no effect and 10 is complete control
[4] = Postemergence, Rate 250 g/ha, scale of 0 to 10, 0 is no effect, 10 is complete control
[5] = Preemergence, Rate 31 g/ha, visual rating, scale 0 to 10 (0 no effect, 10 complete control)
[6] = Preemergence, Rate 62 g/ha, scale of 0 to 10 where 0 is no effect and 10 is complete control
[7] = Preemergence, Rate 125 g/ha, scale of 0 to 10 where 0 is no effect and 10 is complete control
[8] = Preemergence, Rate 250 g/ha, scale 0 to 10 (0 no effect, 10 complete control)
[9] = Rate 31 g/ha, Pre-emergence section (flood test species), scale 0 to 10
[10] = Rate 62 g/ha, flood test species, Pre-emergence, visual evaluation after twelve to sixteen days
[11] = Rate 125 g/ha, under heading Pre-emergence, flood test species, visual evaluation after twelve to sixteen days
[12] = Rate 250 g/ha, Pre-emergence (flood test species), scale 0 to 10, 0 is no effect, 10 is complete control

CC(C)N(C(=O)n1oc(=O)n(CCC2=NOCCC2)c1=O)c1ccc(F)cc1 [Compound 656]
4: Giant foxtail plant response rating (giant foxtail; [5]) | Giant foxtail plant response rating (giant foxtail; [6]) | Blackgrass plant response rating (blackgrass; [6]) | Blackgrass plant response rating (blackgrass; [7]) | Velvetleaf plant response rating (velvetleaf; [7]) | Redroot pigweed plant response rating (pigweed; [7])
5: B. signalgrass plant response rating (surinam grass; [4]) | Plant response rating, Blackgrass (blackgrass; [8])
1: Plant response rating, Morningglory (morningglory; [2]) | Soybean plant response rating (soybean; [1])
6: Crabgrass plant response rating (crabgrass; [5]) | Plant response rating, B. signalgrass (surinam grass; [8]) | Blackgrass plant response rating (blackgrass; [1]) | Plant response rating, Blackgrass (blackgrass; [2]) | Plant response rating, Velvetleaf (velvetleaf; [8]) | Plant response rating, Wild oats (wild oat; [8]) | Plant response rating, Redroot pigweed (pigweed; [8])
3: Plant response rating, Giant foxtail (giant foxtail; [2]) | Plant response rating, Sugarbeets (sugar beet; [8])
10: Giant foxtail plant response rating (giant foxtail; [7]) | Plant response rating, Giant foxtail (giant foxtail; [8])
8: Crabgrass plant response rating (crabgrass; [4]) | Plant response rating, Crabgrass (crabgrass; [8])
2: Plant response rating, B. signalgrass (surinam grass; [3]) | B. signalgrass plant response rating (surinam grass; [7]) | Blackgrass plant response rating (blackgrass; [5]) | Velvetleaf plant response rating (velvetleaf; [6]) | Morningglory plant response rating (morningglory; [3]) | Morningglory plant response rating (morningglory; [4]) | Plant response rating, Soybean (soybean; [2]) | Soybean plant response rating (soybean; [3])
7: Crabgrass plant response rating (crabgrass; [6]) | Crabgrass plant response rating (crabgrass; [7]) | Blackgrass plant response rating (blackgrass; [3])
9: Giant foxtail plant response rating (giant foxtail; [3]) | Giant foxtail plant response rating (giant foxtail; [4]) | Blackgrass plant response rating (blackgrass; [4])
0: Crabgrass plant response rating (crabgrass; [1]) | Plant response rating, Crabgrass (crabgrass; [2]) | Crabgrass plant response rating (crabgrass; [3]) | Corn plant response rating (corn; [1]) | Plant response rating, Corn (corn; [2]) | Corn plant response rating (corn; [3]) | Corn plant response rating (corn; [4]) | Corn plant response rating (corn; [5]) | Corn plant response rating (corn; [6]) | Corn plant response rating (corn; [7]) | Plant response rating, Corn (corn; [8]) | Barnyardgrass plant response rating (bamyardgrass; [9]) | Plant response rating, Barnyardgrass (0 to 10 scale, 0 is no effect, 10 is complete control) (bamyardgrass; [10]) | Barnyardgrass plant response rating (0 to 10 scale, 0 is no effect, 10 is complete control) (bamyardgrass; [11]) | Barnyardgrass plant response rating (bamyardgrass; [12]) | S. Flatsedge plant response rating (smallflower flatsedge; [9]) | Plant response rating, S. Flatsedge (0 to 10 scale, 0 is no effect, 10 is complete control) (smallflower flatsedge; [10]) | S. Flatsedge plant response rating (0 to 10 scale, 0 is no effect, 10 is complete control) (smallflower flatsedge; [11]) | S. Flatsedge plant response rating (smallflower flatsedge; [12]) | Giant foxtail plant response rating (giant foxtail; [1]) | B. signalgrass plant response rating (surinam grass; [1]) | Plant response rating, B. signalgrass (surinam grass; [2]) | B. signalgrass plant response rating (surinam grass; [5]) | B. signalgrass plant response rating (surinam grass; [6]) | Velvetleaf plant response rating (velvetleaf; [1]) | Plant response rating, Velvetleaf (velvetleaf; [2]) | Velvetleaf plant response rating (velvetleaf; [3]) | Ducksalad plant response rating (duck salad; [9]) | Plant response rating, Ducksalad (0 to 10 scale, 0 is no effect, 10 is complete control) (duck salad; [10]) | Ducksalad plant response rating (0 to 10 scale, 0 is no effect, 10 is complete control) (duck salad; [11]) | Ducksalad plant response rating (duck salad; [12]) | Nutsedge plant response rating (purple nutsedge; [1]) | Plant response rating, Nutsedge (purple nutsedge; [2]) | Nutsedge plant response rating (purple nutsedge; [3]) | Nutsedge plant response rating (purple nutsedge; [6]) | Nutsedge plant response rating (purple nutsedge; [7]) | Plant response rating, Nutsedge (purple nutsedge; [8]) | Rice plant response rating (rice; [9]) | Plant response rating, Rice (0 to 10 scale, 0 is no effect, 10 is complete control) (rice; [10]) | Rice plant response rating (0 to 10 scale, 0 is no effect, 10 is complete control) (rice; [11]) | Rice plant response rating (rice; [12]) | Morningglory plant response rating (morningglory; [1]) | Morningglory plant response rating (morningglory; [6]) | Morningglory plant response rating (morningglory; [7]) | Plant response rating, Morningglory (morningglory; [8]) | Wheat plant response rating (wheat; [1]) | Plant response rating, Wheat (wheat; [2]) | Wheat plant response rating (wheat; [3]) | Wheat plant response rating (wheat; [6]) | Wheat plant response rating (wheat; [7]) | Plant response rating, Wheat (wheat; [8]) | Cocklebur plant response rating (cocklebur; [1]) | Plant response rating, Cocklebur (cocklebur; [2]) | Cocklebur plant response rating (cocklebur; [3]) | Cocklebur plant response rating (cocklebur; [4]) | Cocklebur plant response rating (cocklebur; [5]) | Cocklebur plant response rating (cocklebur; [6]) | Cocklebur plant response rating (cocklebur; [7]) | Plant response rating, Cocklebur (cocklebur; [8]) | Wild oats plant response rating (wild oat; [1]) | Plant response rating, Wild oats (wild oat; [2]) | Wild oats plant response rating (wild oat; [3]) | Wild oats plant response rating (wild oat; [6]) | Wild oats plant response rating (wild oat; [7]) | Sugarbeets plant response rating (sugar beet; [1]) | Plant response rating, Sugarbeets (sugar beet; [2]) | Sugarbeets plant response rating (sugar beet; [3]) | Sugarbeets plant response rating (sugar beet; [6]) | Sugarbeets plant response rating (sugar beet; [7]) | Rape plant response rating (rape; [1]) | Plant response rating, Rape (rape; [2]) | Rape plant response rating (rape; [3]) | Rape plant response rating (rape; [6]) | Rape plant response rating (rape; [7]) | Plant response rating, Rape (rape; [8]) | Redroot pigweed plant response rating (pigweed; [1]) | Plant response rating, Redroot pigweed (pigweed; [2]) | Redroot pigweed plant response rating (pigweed; [3]) | Redroot pigweed plant response rating (pigweed; [6]) | Soybean plant response rating (soybean; [6]) | Soybean plant response rating (soybean; [7]) | Plant response rating, Soybean (soybean; [8])

— patent publication US6737383B1, “Herbicidal oxadiazolidines” (priority 1999, dated 2004)
